{"source": "ChEMBL document CHEMBL4364295", "about": "“Discovery of a First-in-Class Receptor Interacting Protein 2 (RIP2) Kinase Specific Clinical Candidate, 2-((4-(Benzo[d]thiazol-5-ylamino)-6-(tert-butylsulfonyl)quinazolin-7-yl)oxy)ethyl Dihydrogen Phosphate, for the Treatment of Inflammatory Diseases” (J Med Chem, 2019)", "key": {"Homo sapiens [1]": {"species": "Homo sapiens", "experiment": "Inhibition of NOD2/TLR4 in human PBMC assessed as reduction in MDP/LPS-induced IL6 production preincubated for 30 mins followed by […] and measured after 6 hrs by immunoassay"}, "Homo sapiens [2]": {"species": "Homo sapiens", "experiment": "Inhibition of NOD2/IL1R in human PBMC assessed as reduction in MDP/Il1alpha-induced TNFalpha production preincubated for 30 mins followed by […] and measured after 6 hrs by immunoassay"}, "Homo sapiens [3]": {"species": "Homo sapiens", "experiment": "Inhibition of NOD2/TLR4 in human PBMC assessed as reduction in MDP/LPS-induced TNFalpha production preincubated for 30 mins followed by […] and measured after 6 hrs by immunoassay"}, "Homo sapiens [4]": {"species": "Homo sapiens", "experiment": "Inhibition of NOD2/TLR5 in human PBMC assessed as reduction in MDP/flagellin-induced TNFalpha production preincubated for 30 mins followed by […] and measured after 6 hrs by immunoassay"}, "Homo sapiens [5]": {"species": "Homo sapiens", "experiment": "Inhibition of NOD2/TLR5 in human PBMC assessed as reduction in MDP/flagellin-induced IL6 production preincubated for 30 mins followed by […] and measured after 6 hrs by immunoassay"}, "Homo sapiens [6]": {"species": "Homo sapiens", "experiment": "Inhibition of NOD2/TLR2 in human PBMC assessed as reduction in MDP/Pam2CSK4-induced IL6 production preincubated for 30 mins followed by MDP/Pam2CSK4 stimulation and measured after 6 hrs by immunoassay"}, "Homo sapiens [7]": {"species": "Homo sapiens", "experiment": "(§1) Inhibition of NOD2/TLR2 in human PBMC assessed as reduction in MDP/Pam2CSK4-induced TNFalpha production preincubated for 30 mins followed by MDP/Pam2CSK4 stimulation and measured after 6 hrs by immunoassay"}, "[8]": {"experiment": "as §1"}, "Homo sapiens [9]": {"species": "Homo sapiens", "experiment": "Inhibition of NOD2/IL1R in human PBMC assessed as reduction in MDP/Il1alpha-induced IL6 production preincubated for 30 mins followed by […] and measured after 6 hrs by immunoassay"}, "[10]": {"target": "Vascular endothelial growth factor receptor 3 (Homo sapiens) (UniProt P35916)", "sequence (P35916 whole entry)": "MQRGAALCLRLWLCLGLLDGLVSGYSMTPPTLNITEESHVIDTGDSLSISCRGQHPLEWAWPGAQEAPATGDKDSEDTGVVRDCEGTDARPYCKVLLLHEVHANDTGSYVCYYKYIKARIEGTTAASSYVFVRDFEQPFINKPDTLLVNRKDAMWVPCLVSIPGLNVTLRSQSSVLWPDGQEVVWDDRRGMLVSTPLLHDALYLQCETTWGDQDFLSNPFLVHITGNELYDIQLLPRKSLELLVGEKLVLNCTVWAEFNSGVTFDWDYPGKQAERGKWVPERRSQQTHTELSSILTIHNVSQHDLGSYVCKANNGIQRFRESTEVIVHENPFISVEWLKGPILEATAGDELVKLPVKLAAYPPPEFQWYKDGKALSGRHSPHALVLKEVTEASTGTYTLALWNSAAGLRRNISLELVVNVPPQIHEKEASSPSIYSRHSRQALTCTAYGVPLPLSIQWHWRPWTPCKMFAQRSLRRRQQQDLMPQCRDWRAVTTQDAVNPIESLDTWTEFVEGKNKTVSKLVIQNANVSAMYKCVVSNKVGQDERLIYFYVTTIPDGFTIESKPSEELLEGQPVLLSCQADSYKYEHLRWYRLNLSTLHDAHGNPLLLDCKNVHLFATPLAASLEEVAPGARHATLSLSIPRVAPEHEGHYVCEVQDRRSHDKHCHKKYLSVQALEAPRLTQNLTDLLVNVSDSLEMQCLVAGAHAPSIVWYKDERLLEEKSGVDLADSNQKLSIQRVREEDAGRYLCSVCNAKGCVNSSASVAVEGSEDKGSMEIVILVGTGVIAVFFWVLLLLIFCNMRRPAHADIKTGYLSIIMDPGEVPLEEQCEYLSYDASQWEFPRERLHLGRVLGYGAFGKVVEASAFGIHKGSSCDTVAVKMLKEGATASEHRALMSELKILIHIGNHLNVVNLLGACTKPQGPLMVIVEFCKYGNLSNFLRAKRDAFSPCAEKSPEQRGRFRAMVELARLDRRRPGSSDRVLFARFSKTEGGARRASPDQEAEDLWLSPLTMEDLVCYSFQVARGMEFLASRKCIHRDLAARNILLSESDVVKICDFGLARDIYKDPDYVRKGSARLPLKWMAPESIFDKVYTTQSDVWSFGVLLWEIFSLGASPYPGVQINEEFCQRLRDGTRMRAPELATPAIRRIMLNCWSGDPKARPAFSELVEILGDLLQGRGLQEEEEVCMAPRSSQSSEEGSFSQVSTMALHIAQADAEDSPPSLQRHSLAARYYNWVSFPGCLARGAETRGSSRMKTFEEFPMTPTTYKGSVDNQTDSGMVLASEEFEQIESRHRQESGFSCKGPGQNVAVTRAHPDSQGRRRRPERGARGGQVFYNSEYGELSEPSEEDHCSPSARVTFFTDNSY", "experiment": "Inhibition of human VEGFR3 at 1 uM using poly[Glu:Tyr] (4:1) as substrate in presence of [gamma-33P]ATP relative to control"}, "Mus musculus [11]": {"tested_on": "Mus musculus", "experiment": "(§2) Antiinflammatory activity TNBS-induced mouse model of colitis assessed as decrease in colitis score at 7.5 to 145 mg/kg, po administered twice daily via gavage pretreated for 2 days followed by TNBS stimulation on day 3 and subsequent compound dosing from day 3 to 6 measured post-last dose by histological analysis", "type": "functional, organism-based"}, "Cricetinae": {"tested_on": "Cricetinae", "experiment": "Displacement of [125I]2-iodomelatonin from hamster MT3 receptor at 10 uM measured after 60 mins by scintillation counting method"}, "[12]": {"target": "T1, Receptor-interacting serine/threonine-protein kinase 2 (Homo sapiens, UniProt O43353)", "T1 sequence (O43353 whole entry)": "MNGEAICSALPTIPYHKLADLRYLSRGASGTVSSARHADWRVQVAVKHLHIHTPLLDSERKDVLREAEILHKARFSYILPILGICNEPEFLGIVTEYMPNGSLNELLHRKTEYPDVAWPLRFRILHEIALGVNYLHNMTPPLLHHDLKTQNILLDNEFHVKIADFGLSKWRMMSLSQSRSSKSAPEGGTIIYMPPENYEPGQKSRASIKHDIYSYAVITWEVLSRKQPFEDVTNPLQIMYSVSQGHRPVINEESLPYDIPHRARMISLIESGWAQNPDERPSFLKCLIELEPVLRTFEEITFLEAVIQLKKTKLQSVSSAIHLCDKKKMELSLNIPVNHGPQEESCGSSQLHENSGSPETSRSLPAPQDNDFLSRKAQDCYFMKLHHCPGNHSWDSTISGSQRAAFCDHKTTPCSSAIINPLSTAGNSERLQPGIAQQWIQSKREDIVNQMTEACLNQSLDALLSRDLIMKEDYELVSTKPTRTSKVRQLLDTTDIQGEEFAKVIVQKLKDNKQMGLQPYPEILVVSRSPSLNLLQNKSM", "experiment": "Inhibition of RIPK2 in human whole blood assessed as reduction in MDP-induced TNFalpha production preincubated for 30 mins followed by MDP-stimulation and measured after 6 hrs by immunoassay", "type": "tissue-based"}, "[13]": {"target": "T2, Voltage-gated inwardly rectifying potassium channel KCNH2 (Homo sapiens, UniProt Q12809)", "T2 sequence (Q12809 whole entry)": "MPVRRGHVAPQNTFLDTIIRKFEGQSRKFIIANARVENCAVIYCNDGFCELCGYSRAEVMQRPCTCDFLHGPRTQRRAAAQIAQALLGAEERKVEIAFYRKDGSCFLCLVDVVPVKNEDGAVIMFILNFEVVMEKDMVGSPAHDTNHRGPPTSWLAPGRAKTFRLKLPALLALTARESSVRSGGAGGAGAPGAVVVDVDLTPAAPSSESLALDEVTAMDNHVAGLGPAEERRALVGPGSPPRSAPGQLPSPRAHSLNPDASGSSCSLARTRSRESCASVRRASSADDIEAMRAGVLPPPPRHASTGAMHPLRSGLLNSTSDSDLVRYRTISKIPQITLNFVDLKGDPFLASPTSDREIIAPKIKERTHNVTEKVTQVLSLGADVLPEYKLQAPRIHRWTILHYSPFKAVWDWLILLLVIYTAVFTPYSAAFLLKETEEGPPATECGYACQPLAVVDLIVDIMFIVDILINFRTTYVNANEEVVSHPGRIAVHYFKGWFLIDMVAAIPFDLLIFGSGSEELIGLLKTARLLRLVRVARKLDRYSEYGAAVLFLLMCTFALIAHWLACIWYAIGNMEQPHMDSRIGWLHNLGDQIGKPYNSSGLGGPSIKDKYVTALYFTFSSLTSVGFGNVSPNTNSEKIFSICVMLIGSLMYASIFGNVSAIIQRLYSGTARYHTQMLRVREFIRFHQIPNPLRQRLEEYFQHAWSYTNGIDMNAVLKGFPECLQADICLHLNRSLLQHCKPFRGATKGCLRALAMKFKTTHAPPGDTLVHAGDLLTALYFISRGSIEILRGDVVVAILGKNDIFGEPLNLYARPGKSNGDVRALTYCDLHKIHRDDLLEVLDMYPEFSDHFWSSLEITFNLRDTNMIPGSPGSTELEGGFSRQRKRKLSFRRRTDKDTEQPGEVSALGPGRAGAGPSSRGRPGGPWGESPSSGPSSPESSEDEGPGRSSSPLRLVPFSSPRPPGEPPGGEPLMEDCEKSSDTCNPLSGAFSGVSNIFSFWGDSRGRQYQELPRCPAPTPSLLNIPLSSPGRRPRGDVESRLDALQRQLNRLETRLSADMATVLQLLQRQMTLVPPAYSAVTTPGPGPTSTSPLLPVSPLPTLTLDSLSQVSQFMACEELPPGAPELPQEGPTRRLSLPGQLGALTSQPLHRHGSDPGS", "experiment": "Inhibition of human ERG (1159 residues) expressed in CHOK1 cells at -80 mV holding potential measured after 5 mins by QPatch electrophysiology method", "type": "cell-based"}, "[14]": {"target": "T1, Receptor-interacting serine/threonine-protein kinase 2", "experiment": "Inhibition of fluorescent-labelled ligand binding to human RIP2K preincubated for 10 mins followed by fluorescent-labelled ligand addition and measured after 10 mins by fluorescence polarization assay"}, "[15]": {"experiment": "Solubility of the compound in FaSSIF", "type": "physicochemical", "details": "simulated gi fluid"}, "[16]": {"experiment": "Solubility of the compound in FeSSIF", "type": "physicochemical", "details": "simulated gi fluid"}, "[17]": {"experiment": "Drug uptake in po dosed Sprague-Dawley rat systemic circulation by LC/MS/MS analysis", "type": "ADME, organism-based", "details": "in vivo"}, "[18]": {"experiment": "Solubility of the compound in FaSSIF measured after 4 hrs", "type": "physicochemical"}, "[19]": {"experiment": "AUC in Sprague-Dawley rat assessed as 2-((4-(Benzo[d]thiazol-5-ylamino)-6-(tert-butylsulfonyl)quinazolin-7-yl)oxy)ethanol level at 2 mg/kg, po by LC/MS/MS analysis", "type": "ADME, organism-based", "details": "in vivo"}, "[20]": {"experiment": "AUC in Sprague-Dawley rat at 2 mg/kg, po by LC/MS/MS analysis", "type": "ADME, organism-based", "details": "in vivo"}, "Intestinal mucosa [21]": {"tested_on": "Intestinal mucosa", "experiment": "Antiinflammatory activity in crohn's disease patient derived inflamed intestinal mucosa assessed as reduction in IL6 production at 1 uM measured after overnight incubation by immunoassay", "type": "functional, tissue-based", "details": "Homo sapiens"}, "Mus musculus [22]": {"tested_on": "Mus musculus", "experiment": "as §2, with “1.5” for “7.5 to 145”", "type": "functional, organism-based"}, "Intestinal mucosa [23]": {"tested_on": "Intestinal mucosa", "experiment": "Antiinflammatory activity in ulcerative colitis patient derived inflamed intestinal mucosa assessed as reduction in IL6 production at 1 uM measured after overnight incubation by immunoassay", "type": "functional, tissue-based", "details": "Homo sapiens"}, "Intestinal mucosa [24]": {"tested_on": "Intestinal mucosa", "experiment": "Antiinflammatory activity in ulcerative colitis patient derived inflamed intestinal mucosa assessed as reduction in IL1beta production at 1 uM measured after overnight incubation by immunoassay", "type": "functional, tissue-based", "details": "Homo sapiens"}, "Intestinal mucosa [25]": {"tested_on": "Intestinal mucosa", "experiment": "Antiinflammatory activity in crohn's disease patient derived inflamed intestinal mucosa assessed as reduction in IL1beta production at 1 uM measured after overnight incubation by immunoassay", "type": "functional, tissue-based", "details": "Homo sapiens"}, "[26]": {"target": "T2, Voltage-gated inwardly rectifying potassium channel KCNH2", "experiment": "Inhibition of human ERG (1159 residues) expressed in CHOK1 cells at 7.3 uM at -80 mV holding potential measured after 5 mins by QPatch electrophysiology method", "type": "cell-based"}, "Cytochrome P450 3A4 [27]": {"target": "T3, Cytochrome P450 3A4 (Homo sapiens, UniProt P08684)", "T3 sequence (P08684 whole entry)": "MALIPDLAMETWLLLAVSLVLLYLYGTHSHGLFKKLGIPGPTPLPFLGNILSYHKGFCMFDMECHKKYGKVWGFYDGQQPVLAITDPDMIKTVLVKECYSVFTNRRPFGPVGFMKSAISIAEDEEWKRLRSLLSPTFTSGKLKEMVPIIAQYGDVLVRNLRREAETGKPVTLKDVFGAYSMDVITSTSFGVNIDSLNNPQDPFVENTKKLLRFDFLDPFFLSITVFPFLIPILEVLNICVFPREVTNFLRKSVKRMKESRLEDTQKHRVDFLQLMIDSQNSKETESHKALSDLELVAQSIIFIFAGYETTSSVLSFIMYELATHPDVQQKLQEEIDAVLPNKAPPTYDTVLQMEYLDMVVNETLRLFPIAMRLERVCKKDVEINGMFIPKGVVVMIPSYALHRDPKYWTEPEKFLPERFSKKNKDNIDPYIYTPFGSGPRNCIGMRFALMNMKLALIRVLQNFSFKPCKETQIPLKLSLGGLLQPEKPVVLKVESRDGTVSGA", "experiment": "Time dependent inhibition of CYP3A4 (unknown origin)", "type": "ADME"}, "CYP3A4": {"target": "CYP3A4 (Homo sapiens, UniProt P08684)", "sequence (P08684 whole entry)": "as above", "experiment": "Ratio of IC50 for time dependent inhibition of CYP3A4 (unknown origin) in presence of NADPH to IC50 for time dependent inhibition of CYP3A4 (unknown origin) in absence of NADPH", "details": "read-out: Ratio IC50"}, "Cytochrome P450 3A4 [28]": {"target": "T3, Cytochrome P450 3A4", "experiment": "Inhibition of CYP3A4 (unknown origin) at 126 nM", "type": "ADME", "details": "0.126 µM"}, "[29]": {"experiment": "Prodrug conversion in Sprague-Dawley rat hepatic portal vein assessed as 2-((4-(Benzo[d]thiazol-5-ylamino)-6-(tert-butylsulfonyl)quinazolin-7-yl)oxy)ethanol formation", "type": "ADME", "details": "in vivo"}}, "note": "Calls of active or inactive are those of the source. The calls are words filed in the database; no cut-off is given here."}
{"molecule": "CC(C)S(=O)(=O)c1ccc2nccc(Nc3n[nH]c4ccc(F)cc34)c2c1", "values": [{"measurement": "inhibition", "setting": "Homo sapiens [1]", "value": "Active"}, {"measurement": "inhibition", "setting": "Homo sapiens [2]", "value": "Active"}, {"measurement": "inhibition", "setting": "Homo sapiens [3]", "value": "Active"}, {"measurement": "inhibition", "setting": "Homo sapiens [4]", "value": "Active"}, {"measurement": "inhibition", "setting": "Homo sapiens [5]", "value": "Active"}, {"measurement": "inhibition", "setting": "Homo sapiens [6]", "value": "Active"}, {"measurement": "inhibition", "setting": "Homo sapiens [7]", "value": "Dose-dependent effect"}, {"measurement": "IC50", "setting": "[8]", "value": 0.025, "unit": "µM"}, {"measurement": "inhibition", "setting": "Homo sapiens [9]", "value": "Active"}]}
{"molecule": "CC(C)(C)S(=O)(=O)c1cc2c(Nc3ccc4scnc4c3)ncnc2cc1OCCOP(=O)(O)O", "values": [{"measurement": "inhibition", "setting": "[10]", "value": "> 90", "unit": "%"}, {"measurement": "Activity", "setting": "Mus musculus [11]", "value": "Active"}, {"measurement": "inhibition", "setting": "Cricetinae", "value": "Active"}]}
{"molecule": "COc1cc2ncnc(Nc3ccc4scnc4c3)c2cc1S(=O)(=O)C(C)(C)C", "values": [{"measurement": "IC50", "setting": "[12]", "value": 0.374, "unit": "µM"}, {"measurement": "IC50", "setting": "[13]", "value": "> 30", "unit": "µM"}, {"measurement": "IC50", "setting": "[14]", "value": 0.004, "unit": "µM"}]}
{"molecule": "CC(C)(C)S(=O)(=O)c1cc2c(Nc3ccc4scnc4c3)ncnc2cc1OCCOP(=O)(O)O.Cl", "values": [{"measurement": "solubility", "setting": "[15]", "value": "Soluble"}, {"measurement": "solubility", "setting": "[16]", "value": "Soluble"}]}
{"molecule": "CC(C)(C)S(=O)(=O)c1cc2c(Nc3ccc4scnc4c3)ncnc2cc1OCCOS(=O)(=O)[O-].[Na+]", "values": [{"measurement": "Drug uptake", "setting": "[17]", "value": "Not Active"}, {"measurement": "solubility at 4 h", "setting": "[18]", "value": 2460, "unit": "µg/mL"}]}
{"molecule": "CN(C)C(=O)OCCOc1cc2ncnc(Nc3ccc4scnc4c3)c2cc1S(=O)(=O)C(C)(C)C", "values": [{"measurement": "AUC", "setting": "[19]", "value": 10, "unit": "ng·h/mL"}, {"measurement": "Drug uptake", "setting": "[17]", "value": "Not Active"}, {"measurement": "solubility at 4 h", "setting": "[18]", "value": 12, "unit": "µg/mL"}, {"measurement": "AUC", "setting": "[20]", "value": 10, "unit": "ng·h/mL"}]}
{"molecule": "CC(C)[C@H](N)C(=O)OCCOc1cc2ncnc(Nc3ccc4scnc4c3)c2cc1S(=O)(=O)C(C)(C)C.Cl.Cl", "values": [{"measurement": "solubility at 4 h", "setting": "[18]", "value": 690, "unit": "µg/mL"}]}
{"molecule": "C[C@]12C=CC(=O)C=C1CC[C@@H]1[C@@H]2[C@@H](O)C[C@@]2(C)[C@H]1CC[C@]2(O)C(=O)CO", "values": [{"measurement": "Activity", "setting": "Intestinal mucosa [21]", "value": "Active"}, {"measurement": "Activity", "setting": "Mus musculus [22]", "value": "Active"}, {"measurement": "Activity", "setting": "Intestinal mucosa [23]", "value": "Active"}, {"measurement": "Activity", "setting": "Intestinal mucosa [24]", "value": "Active"}, {"measurement": "Activity", "setting": "Intestinal mucosa [25]", "value": "Active"}]}
{"molecule": "CC(C)[C@H](N)C(=O)OCCOc1cc2ncnc(Nc3ccc4scnc4c3)c2cc1S(=O)(=O)C(C)(C)C", "values": [{"measurement": "AUC", "setting": "[19]", "value": 730, "unit": "ng·h/mL"}, {"measurement": "inhibition (INH)", "setting": "[26]", "value": "Active"}, {"measurement": "Drug uptake", "setting": "[17]", "value": "Not Active"}, {"measurement": "inhibition (INH)", "setting": "Cytochrome P450 3A4 [27]", "value": "Active"}, {"measurement": "IC50 shift", "setting": "CYP3A4", "value": 2.9}, {"measurement": "inhibition (INH)", "setting": "Cytochrome P450 3A4 [28]", "value": "Active"}, {"measurement": "Drug metabolism", "setting": "[29]", "value": "Metabolite_Detected"}]}
{"molecule": "CC(C)(C)S(=O)(=O)c1cc2c(Nc3ccc4scnc4c3)ncnc2cc1OCCOP(=O)([O-])[O-].[Na+].[Na+]", "values": [{"measurement": "solubility", "setting": "[15]", "value": "Soluble"}, {"measurement": "solubility", "setting": "[16]", "value": "Soluble"}]}
